According to patent publication US20100249243A1, “NOVEL BETA-HYDROXYKETONES AND BETA-ALKOXYKETONES WITH ESTROGENIC ACTIVITY” (priority 2007, published 2010):
Read-outs that look alike come from different tables or passages of the source.

How the values were obtained:
ERα = molecular target: T1, ERα (Homo sapiens, UniProt P03372); test: ERα luciferase reporter (pERE2TATA-LUC) transactivation assay in transfected HEK293 cells; type: cell-based; design: expressed in transfected cells; host or cells: HEK293; details: 24 hours; for ERα receptor activation relative to 10 nM E2 corresponding 100: Table 1, sample concentration 10 μM, mean of at least three independent transfections, SEM typically <15%; for ERα in vitro activity (receptor activation relative to 10 nM E2): Table 2, previously published compounds, test compound 10 μM
T1 sequence (P03372 1-595): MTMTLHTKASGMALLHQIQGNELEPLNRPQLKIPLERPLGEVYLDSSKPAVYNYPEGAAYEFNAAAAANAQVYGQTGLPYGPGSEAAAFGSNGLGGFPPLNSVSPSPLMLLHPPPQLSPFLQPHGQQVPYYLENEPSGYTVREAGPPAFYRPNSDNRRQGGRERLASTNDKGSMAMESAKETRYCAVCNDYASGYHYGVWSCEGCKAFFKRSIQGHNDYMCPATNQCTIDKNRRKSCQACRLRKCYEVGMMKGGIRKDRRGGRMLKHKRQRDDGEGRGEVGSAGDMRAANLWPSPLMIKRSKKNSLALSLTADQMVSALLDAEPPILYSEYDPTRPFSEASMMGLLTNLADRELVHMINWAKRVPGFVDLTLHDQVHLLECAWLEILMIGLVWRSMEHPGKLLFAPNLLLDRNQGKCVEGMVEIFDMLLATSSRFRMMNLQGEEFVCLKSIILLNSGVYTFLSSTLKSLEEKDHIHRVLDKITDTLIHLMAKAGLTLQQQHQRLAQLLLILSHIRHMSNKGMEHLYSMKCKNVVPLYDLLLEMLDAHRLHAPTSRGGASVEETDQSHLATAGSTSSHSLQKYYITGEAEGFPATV
Experimental: (§1) All other reagents were of reagent grade from Sigma or Fluka. One day before transfection, HEK293 cells were seeded in 48-well plates (70×10^3 cells per well) in phenol-free Dulbecco's modified Eagle medium supplemented with 5% delipidated fetal bovine serum (Sigma) and antibiotics. After a medium change, the cells were transfected for 4 hours with 5 ng ERα or ERβ expression vector, 75 ng reporter plasmid pERE2TATA-LUC and 20 ng control plasmid pCMVβ by the calcium phosphate method. After transfection, the cells received fresh medium containing either vehicle (0.1% v/v) or test compound (10 μM). After 24 hours, the cells were washed, lysed and luciferase and β-galactosidase activities were determined from 20 μl of lysates with the Victor^2TM reader (PerkinElmer Wallac, Turku, Finland). […] The data are means±SEM of at least three independent transfections.

ERβ = ERβ (Homo sapiens, UniProt Q92731); test: ERβ luciferase reporter (pERE2TATA-LUC) transactivation assay in transfected HEK293 cells; type: cell-based; design: expressed in transfected cells; host or cells: HEK293; details: for Emax at 10 µM: HEK293, 24 h; for ERβ receptor activation relative to 10 nM E2 corresponding 100: Table 1, sample concentration 10 μM, 24 hours, mean of at least three independent transfections, SEM typically <15%
Experimental: as §1

[1] = read-out: ERβ receptor activation relative to 10 nM E2 corresponding 100, Table 1, sample concentration 10 μM, mean of at least three independent transfections, SEM typically <15%
[2] = read-out: ERβ in vitro activity (receptor activation relative to 10 nM E2), Table 2, previously published compounds, test compound 10 μM

ERβ, sequence (Q92731 whole entry): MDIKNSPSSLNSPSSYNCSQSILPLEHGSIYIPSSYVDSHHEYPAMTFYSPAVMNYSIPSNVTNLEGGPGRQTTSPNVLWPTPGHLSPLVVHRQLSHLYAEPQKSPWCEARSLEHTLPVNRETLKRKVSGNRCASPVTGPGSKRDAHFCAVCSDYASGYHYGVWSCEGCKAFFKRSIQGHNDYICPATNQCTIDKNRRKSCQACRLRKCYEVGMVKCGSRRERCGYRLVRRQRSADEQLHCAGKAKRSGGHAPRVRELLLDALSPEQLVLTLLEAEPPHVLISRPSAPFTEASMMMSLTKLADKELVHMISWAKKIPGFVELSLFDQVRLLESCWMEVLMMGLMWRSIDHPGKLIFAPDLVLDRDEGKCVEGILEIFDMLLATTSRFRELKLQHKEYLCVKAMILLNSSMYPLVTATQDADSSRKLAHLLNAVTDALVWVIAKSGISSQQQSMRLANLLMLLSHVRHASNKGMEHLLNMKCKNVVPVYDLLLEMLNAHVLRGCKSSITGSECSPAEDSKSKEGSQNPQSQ

Structure (SMILES)	ERα receptor activation relative to 10 nM E2 corresponding 100 (ERα) [%]	Emax at 10 µM (ERβ; [1]) [%]	ERα in vitro activity (receptor activation relative to 10 nM E2) (ERα) [%]	Emax at 10 µM (ERβ; [2]) [%]	ERβ receptor activation relative to 10 nM E2 corresponding 100 (ERβ) [%]
COC(CC(=O)CCc1ccccc1)Cc1ccc(F)cc1 (stereo not shown) [Compound 48ab, 5-Methoxy-6-(4-fluorophenyl)-1-phenyl-hexan-3-one]	33.1	11.2			
COC(CC(=O)CCCc1ccccc1)Cc1ccccc1 (stereo not shown) [Compound 51ab, 2-Methoxy-1,7-diphenyl-heptan-4-one]	24.5	30.4			
O=C(CCCc1ccccc1)CC(O)Cc1ccccc1 (stereo not shown) [Compound 38ab, 2-Hydroxy-1,7-diphenyl-heptan-4-one]	24.7	9.1			
O=C(Cc1cccc(F)c1)CC(O)CCc1ccccc1 (stereo not shown) [Compound 21ab, 1-(3-Fluorophenyl)-4-hydroxy-6-phenyl-hexan-2-one]	25.1	21.1			
CC(O)(CC(=O)CCCc1ccc(O)cc1)c1ccccc1 (stereo not shown) [Compound 37ab, 6-Hydroxy-1-(4-hydroxy-phenyl)-6-phenyl-heptan-4-one]	90.9	103			
COC(CC(=O)c1ccccc1)Cc1ccccc1 (stereo not shown) [Compound 61ab, 3-Methoxy-1,4-diphenyl-butan-1-one]			0.3	18.4	
O=C(CCc1ccccc1O)CC(O)Cc1ccc(F)cc1 (stereo not shown) [Compound 32ab, 6-(4-Fluoro-phenyl)-5-hydroxy-1-(2-hydroxy-phenyl)-hexan-3-one]	21.6	11.1			
COC(CC(=O)CCc1ccccc1)Cc1ccccc1 (stereo not shown) [Compound 46ab, 5-Methoxy-1,6-diphenyl-hexan-3-one]	9.9	1.3			
COC(CC(=O)CCc1ccccc1)Cc1ccc2ccccc2c1 (stereo not shown) [Compound 50ab, 5-Methoxy-6-naphthalen-2-yl-1-phenyl-hexan-3-one]	30.4	12.4			
COc1ccc(CC(O)CC(=O)CCc2ccccc2)cc1 (single isomer, unassigned) [Compound 24b, 5-Hydroxy-6-(4-methoxyphenyl)-1-phenyl-hexan-3-one]	1.3				1.2
O=C(CCCc1ccccc1)CC(O)Cc1ccc(O)cc1 (stereo not shown) [Compound 39ab, 2-Hydroxy-1-(4-hydroxy-phenyl)-7-phenyl-heptan-4-one]	16.0	2.4			
CC(O)(CC(=O)CCc1ccccc1)c1ccccc1 (stereo not shown) [Compound 57ab, 5-Hydroxy-1,5-diphenyl-hexan-3-one]			52.1	38.4	
CC(O)(CC(=O)CCc1ccc(O)cc1)c1ccccc1 (stereo not shown) [Compound 23ab, 5-Hydroxy-1-(4-hydroxy-phenyl)-5-phenyl-hexan-3-one]	80.3	116			
O=C(Cc1ccccc1)CC(O)c1cccc(O)c1 (stereo not shown) [Compound 19ab, 4-Hydroxy-4-(3-hydroxyphenyl)-1-phenyl-butan-2-one]	12.0	7.7			
O=C(Cc1ccccc1)CC(O)CCc1ccccc1 (stereo not shown) [Compound 20ab, 4-Hydroxy-1,6-diphenylhexan-2-one]	4.3	0.2			
COC(CC(=O)CCc1ccccc1)Cc1cccc2ccccc12 (stereo not shown) [Compound 49ab, 5-Methoxy-6-naphthalen-1-yl-1-phenyl-hexan-3-one]	35.5	2			
O=C(CCc1ccccc1)CC(O)Cc1ccc2ccccc2c1 (single isomer, unassigned) [Compound 28a, 5-Hydroxy-6-naphthalen-2-yl-1-phenyl-hexan-3-one]	12.4				6.4
